In ChEMBL document CHEMBL4118115, “Synthetic analogues of durantoside I from Citharexylum spinosum L. and their cytotoxic activity” (Bioorg Med Chem Lett, 2018) one finds IC50 data, which are given here for 7 compounds.

Some results are limits rather than exact numbers.

In general, IC50 refers to the concentration that gives 50% inhibition.

In one test the test system is HT-29. Briefly: Cytotoxicity against human HT-29 cells assessed as reduction in cell viability by Sulforhodamine B assay. Format: functional, cell-based.
For the next test, the system named is KB. Briefly: Cytotoxicity against human KB cells assessed as reduction in cell viability by Sulforhodamine B assay. Format: functional, cell-based. (In general: The SRB assay estimates cell density from bound dye.)
The next test deals with P388. The test is described as follows: Cytotoxicity against mouse P388 cells assessed as reduction in cell viability by Sulforhodamine B assay. The test is classed as functional, cell-based.
The next test deals with MCF7. Briefly: Cytotoxicity against human MCF7 cells assessed as reduction in cell viability by Sulforhodamine B assay. The test is classed as functional, cell-based.
A further test concerns A549. The test is described as follows: Cytotoxicity against human A549 cells assessed as reduction in cell viability by Sulforhodamine B assay. The test is classed as functional, cell-based.
Test [1] in a line: Cytotoxicity against rat ASK cells assessed as reduction in cell viability by Sulforhodamine B assay. Format: functional, cell-based.
In another test the test system is HEK293. The test is described as follows: Cytotoxicity against HEK293 cells assessed as reduction in cell viability by Sulforhodamine B assay. The test is classed as cell-based. Conditions: Homo sapiens.

Turning to `COC(=O)C1=CO[C@@H](O[C@H]2O[C@@H](CO)[C@H](O)[C@@H](O)[C@@H]2O)[C@@H]2[C@@](C)(O)[C@@H](OC(=O)/C=C/c3ccccc3)C[C@]12O`, the IC50 (with HT-29; with KB; in the test with P388; in the test with MCF7; with A549; in test [1]) was greater than 50 µM each time. Besides, the IC50 in the test on HEK293 was greater than 50 µM.

As for `COC(=O)C1=CO[C@@H](O[C@H]2O[C@@H](COC(C)=O)[C@H](OC(C)=O)[C@@H](OC(C)=O)[C@@H]2OC(C)=O)[C@@H]2[C@@](C)(OC(C)=O)[C@@H](OC(=O)/C=C/c3ccccc3)C[C@]12O`, the IC50 (with HT-29; in the test on KB; with P388; in the test on MCF7; with A549; in test [1]) was greater than 50 µM in each case. Besides, the IC50 in the test on HEK293 came out at 45 µM.

As to `COC(=O)C1=CO[C@@H](O[C@H]2O[C@@H](CO[Si](C)(C)C(C)(C)C)[C@H](OC(C)=O)[C@@H](OC(C)=O)[C@@H]2OC(C)=O)[C@@H]2[C@@](C)(O)[C@@H](OC(=O)/C=C/c3ccccc3)C[C@]12O`, the IC50 is greater than 50 µM with HT-29; greater than 50 µM in the test with KB; 3.11 µM with P388; 43.3 µM in the test on MCF7; greater than 50 µM in the test on A549; greater than 50 µM in test [1]. In the test with HEK293, the IC50 amounted to 31.8 µM.

For `COC(=O)C1=CO[C@@H](O[C@H]2O[C@@H](COC(C)=O)[C@H](OC(C)=O)[C@@H](OC(C)=O)[C@@H]2OC(C)=O)[C@@H]2[C@@](C)(O)[C@@H](OC(=O)/C=C/c3ccccc3)C[C@]12O`, the IC50 (in the test on HT-29; in the test on KB; with P388; in the test on MCF7; in the test with A549; in test [1]) was greater than 50 µM each time. Moreover, the IC50 in the test on HEK293 was greater than 50 µM.

For the compound `COC(=O)C1=CO[C@@H](O[C@H]2O[C@@H](CO[Si](c3ccccc3)(c3ccccc3)C(C)(C)C)[C@H](OC(C)=O)[C@@H](OC(C)=O)[C@@H]2OC(C)=O)[C@@H]2[C@@](C)(O)[C@@H](OC(=O)/C=C/c3ccccc3)C[C@]12O`, the concentration for half-maximal inhibition (IC50) in the test with HT-29 was 37.2 µM; in the test with KB it was greater than 50 µM; with P388 it was 6.11 µM; with MCF7, greater than 50 µM; in the test with A549 it was greater than 50 µM; in test [1], greater than 50 µM. Further, the IC50 with HEK293 was greater than 50 µM.

For the compound `Cc1c2ccncc2c(C)c2c1[nH]c1ccccc12` [ELLIPTECINE], the IC50 in the test with HT-29 was determined as 2 µM; in the test with KB, 2.15 µM; in the test with P388, 1.84 µM; in the test with MCF7, 1.99 µM; in the test on A549, 1.96 µM; in test [1], 2.02 µM. The IC50 with HEK293 is 1.9 µM.

Regarding `COC(=O)C1=CO[C@@H](O[C@H]2O[C@@H](CO[Si](c3ccccc3)(c3ccccc3)C(C)(C)C)[C@H](OC(C)=O)[C@@H](OC(C)=O)[C@@H]2OC(C)=O)[C@@H]2[C@@](C)(O)[C@@H](OC(C)=O)C[C@]12O`, the IC50 in the test on HT-29 stood at 35 µM; in the test with KB, 14.7 µM; in the test on P388, 3.67 µM; in the test on MCF7, 9.01 µM; in the test on A549, 8.2 µM; in test [1] it was 9.19 µM. Besides, the IC50 with HEK293 was 7.4 µM.
